Patent US9868717B2, “Tricyclic sulphonamide compounds and methods of making and using same” (Zafgen, Inc., priority 2012, dated 2018)

Target: T1, Human recombinant MetAP2 (Homo sapiens, UniProt P50579)
T1 construct: made in house; host or cells: Sf9 insect cells
Assay: inhibition of recombinant human MetAP2 activity (MAS substrate, amino acid oxidase/Amplex red fluorescence)
Assay type: biochemical
Conditions: manganese enzyme, 30 minutes at 25° C., pH 7.5, 0.75 mM MAS substrate, 1% DMSO
Method: Compounds are tested for their capacity to inhibit recombinant human MetAP2 activity using the following assay.
Human recombinant MetAP2 expressed in Sf9 cells followed by affinity purification and EDTA treatment to remove endogenous active site cation was dialysed against MnCl2 to produce the manganese enzyme used in the assay. The assay was carried out for 30 minutes at 25° C. in 50 mM HEPES buffer containing 100 mM NaCl, pH 7.5 the presence of 0.75 mM Methionine-Alanine-Serine (MAS) substrate and 50 μg/ml amino acid oxidase using a dilution of purified MetAP2 giving >3-fold signal:noise. Cleavage of the substrate by MetAP2 and oxidation of free methionine by amino acid oxidase was detected and quantified using fluorescence generated by Amplex red (10-acetyl-3,7-dihydroxyphenoxazine) in combination with horseradish peroxidase which detects H2O2 released during the oxidation step. The fluorescent signal was detected using a multiwell fluorimeter. Compounds were diluted in DMSO prior to addition to assay buffer, the final DMSO concentration in the assay being 1%.
The IC50 is defined as the concentration at which a given compound achieves 50% inhibition of control. IC50 values are calculated using the XLfit software package (version 2.0.5).

T1 sequence (P50579 whole entry): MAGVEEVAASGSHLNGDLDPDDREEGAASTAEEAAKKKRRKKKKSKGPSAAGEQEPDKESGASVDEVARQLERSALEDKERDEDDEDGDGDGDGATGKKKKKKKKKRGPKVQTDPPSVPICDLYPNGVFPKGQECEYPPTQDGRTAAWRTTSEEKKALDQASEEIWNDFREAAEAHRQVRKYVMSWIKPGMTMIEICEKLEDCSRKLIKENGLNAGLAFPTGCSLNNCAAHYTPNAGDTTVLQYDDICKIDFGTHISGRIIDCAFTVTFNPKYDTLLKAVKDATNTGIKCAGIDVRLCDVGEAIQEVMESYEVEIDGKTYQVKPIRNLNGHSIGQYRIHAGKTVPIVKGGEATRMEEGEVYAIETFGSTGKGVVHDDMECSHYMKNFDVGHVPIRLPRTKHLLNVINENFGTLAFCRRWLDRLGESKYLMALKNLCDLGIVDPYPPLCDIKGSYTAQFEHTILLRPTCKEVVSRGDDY

Compound | IC50 | IC50 (listed as Second eluting enantiomer of (1aR,7bS)-5-[2-(2-diethylamino-methylcyclopropyl)-4)
CC1(O)CCN(C/C=C\c2cc(F)ccc2S(=O)(=O)Nc2ccc3c(c2C(=O)O)OC[C@@H]2C[C@H]32)CC1 [Example 22, (1aR,7bS)-5-{4-Fluoro-2-[(Z)-3-(4-hydroxy-4-methylpiperidin-1-yl)prop-1-enyl]benzenesulfonylamino}-1,1a,2,7b-tetrahydrocyclopropa[c]chromene-4-carboxylic acid] | 0.05 to 0.5 µM | –
CCN(CC)CC(C)(C)Cc1cc(F)ccc1S(=O)(=O)Nc1ccc2c(c1C(=O)O)OC[C@@H]1C[C@H]21 [Example 5, (1aR,7bS)-5-[2-(3-Diethylamino-2,2-dimethylpropyl)-4-fluorobenzenesulfonyl-amino]-1,1a,2,7b-tetrahydrocyclopropa[c]chromene-4-carboxylic acid] | < 0.05 µM | –
CCN(CC)CC1CC1c1cc(F)ccc1S(=O)(=O)Nc1ccc2c(c1C(=O)O)OC[C@@H]1C[C@H]21 (some centres unmarked) [Example 3] | – | 0.05 to 0.5 µM
CCN(CC)CC1CC1c1cc(F)ccc1S(=O)(=O)Nc1ccc2c(c1C(=O)O)OC[C@@H]1C[C@H]21 (stereo partly drawn) [Example 1, (1aR,7bS)-5-[2-(2-Diethylaminomethylcyclopropyl)-4-fluorobenzenesulfonyl-amino]-1,1a,2,7b-tetrahydrocyclopropa[c]chromene-4-carboxylic acid] | 0.05 to 0.5 µM | –
O=C(O)c1c(NS(=O)(=O)c2ccc(F)cc2/C=C\CN2CCC(O)CC2)ccc2c1OC[C@@H]1C[C@H]21 [Example 21, (1aR,7bS)-5{4-Fluoro-2-[(Z)-3-(4-hydroxypiperidin-1-yl)prop-1-enyl]benzenesulfonylamino}-1,1a,2,7b-tetrahydrocyclopropa[c]chromene-4-carboxylic acid] | 0.05 to 0.5 µM | –
